This is an account of results in PMC9814530, “Rapid de novo discovery of peptidomimetic affinity reagents for human angiotensin converting enzyme 2” (Communications Chemistry, 2022).

Entries after “also recorded” stand apart in the source; their conditions may differ. Where a SMILES comes first, the peptide text is derived from it. [ ]: non-standard residue; d: D form. Phe(3,4-F2) = N[C@@H](Cc1ccc(F)c(F)c1)C(=O)O; Ala(4-thiazolyl) = N[C@@H](Cc1cscn1)C(=O)O; Phe(4-NH2) = Nc1ccc(C[C@H](N)C(=O)O)cc1; Met(O2) = CS(=O)(=O)CC[C@H](N)C(=O)O; Ala(cPr) = N[C@@H](CC1CC1)C(=O)O; Cha = N[C@@H](CC1CCCCC1)C(=O)O; β3hS = N[C@@H](CO)CC(=O)O; Orn = NCCC[C@H](N)C(=O)O

The target of assay [1] is T1, ACE2 (Homo sapiens, UniProt Q9BYF1). Description: Bio-layer interferometry (BLI) binding of immobilized biotinylated peptides to ACE2. Conditions: 500 nM of ACE2. As to the method:
(§1) Peptide binding validation was carried out using the ForteBio Octet RED96 system. The chamber temperature was kept constant at 30 °C with a plate agitation speed at 1000 rpm. Briefly, streptavidin (SA)-coated biosensor tips were dipped into 200 μL of 1.0–2.0 μM biotinylated peptide solution (in a kinetic buffer (K.B.): 1 × PBS with 0.1% BSA and 0.02% Tween-20) for peptides immobilization. Once loaded with peptides, the tips were then moved into solutions containing various concentrations (1000, 500, 250, 125, and 62.5 nM) of recombinant ACE2 protein (purchased from Sino Biological, Catalog number 10108-H08H) in the K.B. to obtain the association curve. After the 180 s association step, the tips were moved back into the K.B. to obtain the dissociation curve. Buffer-only and protein-only conditions (concentration at 1000 nM) were used as references for background subtraction. The association and dissociation curves were fitted with the ForteBio Biosystems Data Analysis Software under 5 experimental conditions (n = 5, global fitting algorithm, binding model 1:1) to calculate the apparent dissociation constant (KD).
Supplementary Note 4: Binding affinity measurements
4.1 BLI raw binding data of noncanonical peptides […]
affinity was reported using the kinetic fitting results ( KD is calculated by divide the […]
off rate by on rate). […] The ACE2
(§2) (1 picture or pasted object on this page, not shown here)
4.2 BLI raw binding data of canonical peptides
Supplementary Fig. 20. The BLI binding curve fitting (red lines) of ABP C1-C4 and ABP C7-C9 from Library 1 AS-MS against ACE2.
ACE2 concentration was 250 nM.
Background: In BLI a coated tip is dipped into the sample, and binding shifts an interference pattern.

For assay [2], the system named is 12ca5. The experiment in a line: BLI binding to an unrelated (off-target) protein. The procedure: as §1, with “(KD). […]” for “(KD).”
4.4 The binding of ABP noncanonical peptides to an unrelated protein
N6, and N8 to an unrelated protein, 12ca5, measured by BLI at concentration
as §2

Assay [3] deals with T1, ACE2. The experiment in a line: ACE2 pulldown from human serum (SDS-PAGE). It is filed as binding. The note with it: biotinylated peptide on streptavidin magnetic beads, ACE2 in 5% normal human serum, 1.0 h 4 °C, 6 M urea elution. The procedure: After removing the supernatant and washing off the unbound fraction, the bound material was eluted with a high concentration of urea and analyzed using the sodium dodecyl sulfate–polyacrylamide gel electrophoresis (SDS-PAGE). […] Bound ACE2 was eluted for subsequent analysis. b The SDS-PAGE image with samples showing from left to right lanes: (1) molecular weight standard; (2) purified ACE2 protein (1.5 µg) as a loading control; (3) normal human serum as a control; (4) normal human serum mixed with ACE2 (1.5 µg); (5) elution of the bound fraction from the magnetic beads. NHS, Normal Human Serum (5%). Following a previous protocol, streptavidin-coated magnetic beads (100 µL, at 10 mg/mL) were pre-washed with blocking buffer (1 × PBS with 0.05% Tween-20, pH 7.4) and captured on a magnetic separation rack. The beads were then re-suspended in 1.0 mL of the same blocking buffer. […] After 30 min of incubation at 4 °C, the supernatant was removed and the beads were washed with 1 × PBS (3 × 1.0 mL) before incubation with the protein mixture. Soluble ACE2 (5 µL, 0.62 mg/mL) was mixed with 50 µL normal human serum in 1 × PBS (pH 7.4) to a final volume of 1.0 mL. The magnetic beads displaying immobilized ABP N1 were then added into the protein complex. […]

Assay [4] addresses T1, ACE2. The experiment in a line: ELISA detection of ACE2 coated from 1 x PBS. It is filed as binding. The note with it: ACE2 in 1 x PBS 10 pM-100 nM coated; biotinylated peptide 100 nM; streptavidin-HRP, TMB, A450. As to the method:
(§3) However, we observed a decreased detection sensitivity presumably due to the decreased amount of ACE2 being immobilized on the plate with many other serum proteins present. […] The plate was incubated with ABP N1 or control peptide, followed by streptavidin-HRP and TMB substrate. Absorbance was measured at 450 nm. The experiment was performed in technical triplicates (n = 3). Each data point, the mean signal as a bar, and error bars from experimental standard deviation, and statistical significance calculated with the unpaired Student’s t-test are shown. A serial dilution of soluble ACE2 was coated onto an ELISA plate (96-well format) overnight at 4 °C. The next day, the plate was blocked with 5% BSA in 1 × PBS supplement with 0.05% Tween-20 (PBST, pH 7.4) for 2–3 h at room temperature. […] Control groups are biotinylated peptide ABP N8 and PBST alone. The supernatant was then removed, and the wells were washed with PBST (3× 200 µL). Streptavidin-HRP conjugate in PBST (0.25 µg/mL, 100 µL) was added to each well and incubated for 30 min at room temperature. The plate was PBST-washed again (3 × 200 µL) before color development with 100 µL 1-Step™ Ultra TMB-ELISA Substrate Solution (Thermo Fisher, Catalog number 34028). After 10 min, the reaction was quenched with 2.0 M sulfuric acid (100 µL). Finally, the absorbance at 450 nm was measured on a microplate reader (BioTek) for all treated wells. […]

The target of assay [5] is T1, ACE2. The experiment in a line: ELISA detection of ACE2 coated from a mixture with normal human serum. The note with it: plate coated with normal human serum and exogenous ACE2; biotinylated peptide 100 nM; streptavidin-HRP, TMB, A450. Type of assay: binding. The procedure:
as §3

The target of assay [6] is T1, ACE2. The experiment in a line: BLI binding competition of known ACE2 binders (AngII, MLN-4760) on the ABP-ACE2 interaction. On the set-up: Soluble ACE2 (5 µL, 0.62 mg/mL) was mixed with 50 µL normal human serum. Conditions: immobilized biotinylated peptide.

T1 sequence (Q9BYF1 18-740 limits assumed): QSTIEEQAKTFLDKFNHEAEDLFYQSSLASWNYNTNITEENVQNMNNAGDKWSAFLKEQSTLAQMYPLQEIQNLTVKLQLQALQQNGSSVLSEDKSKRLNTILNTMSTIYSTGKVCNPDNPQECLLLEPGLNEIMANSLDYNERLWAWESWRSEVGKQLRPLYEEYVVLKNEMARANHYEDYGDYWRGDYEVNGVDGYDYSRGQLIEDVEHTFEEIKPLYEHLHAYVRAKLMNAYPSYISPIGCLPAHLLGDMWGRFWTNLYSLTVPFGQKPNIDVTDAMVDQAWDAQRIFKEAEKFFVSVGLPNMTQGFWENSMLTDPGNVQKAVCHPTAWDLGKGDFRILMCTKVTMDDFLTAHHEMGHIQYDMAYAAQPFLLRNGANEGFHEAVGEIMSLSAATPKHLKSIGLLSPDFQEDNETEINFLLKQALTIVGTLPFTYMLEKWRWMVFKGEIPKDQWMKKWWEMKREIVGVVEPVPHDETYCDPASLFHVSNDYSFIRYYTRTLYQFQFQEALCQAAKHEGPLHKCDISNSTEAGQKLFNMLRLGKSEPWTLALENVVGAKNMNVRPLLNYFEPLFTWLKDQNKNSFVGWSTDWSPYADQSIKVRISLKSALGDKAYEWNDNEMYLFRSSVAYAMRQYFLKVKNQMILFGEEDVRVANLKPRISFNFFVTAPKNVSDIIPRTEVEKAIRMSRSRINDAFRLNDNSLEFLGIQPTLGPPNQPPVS

In the case of `CS(=O)(=O)CC[C@H](NC(=O)[C@H](CC1CCCCC1)NC(=O)[C@H](Cc1cscn1)NC(=O)C[C@H](CO)NC(=O)[C@H](CCCN)NC(=O)[C@H](CCC(N)=O)NC(=O)[C@H](CCCN)NC(=O)[C@H](Cc1ccc(F)c(F)c1)NC(=O)[C@H](Cc1cscn1)NC(=O)[C@@H](N)CC1CC1)C(=O)NCC(=O)N[C@@H](Cc1ccc(N)cc1)C(=O)N[C@@H](CCCCN)C(N)=O` [ABP N1] (H-[Ala(cPr)][Ala(4-thiazolyl)][Phe(3,4-F2)][Orn]Q[Orn][β3hS][Ala(4-thiazolyl)][Cha][Met(O2)]G[Phe(4-NH2)]K-NH2), the BLI response signal in assay [1] was ~ 1.3 nm; in assay [2] (500 nM of the off-target protein (12ca5)) it was 0.25 nm. For the same compound, the “higher signal for ACE2 than for 12ca5” value in assay [2] (500 nM ACE2 versus 500 nM 12ca5, BLI) is given as ~ 5 fold. For the same compound, the “binding to unrelated protein 12ca5 (in words)” value in assay [2] (BLI, 12ca5 at 500 nM) is “minimal binding; also recorded: No apparent binding”. In addition, the “pull-down of ACE2 from human serum” value in assay [3] is reported as “selective enrichment of ACE2 protein”. The “ELISA detection of ACE2 (in words)” value in assay [4] is reported as “picomolar concentration of ACE2 was detected”. In addition, the “ELISA detection of ACE2 in human serum (in words)” value in assay [5] was “dose-dependent ACE2 detection”. In addition, in assay [6] (500 nM ACE2 + 5 uM AngII (10-fold excess)), the “inhibition of ABP binding to ACE2 by AngII” value is reported as “not inhibited”. Moreover, in assay [6] (500 nM ACE2 + 5 uM MLN-4760 (10-fold excess)), the “inhibition of ABP binding to ACE2 by MLN-4760” value was “partially inhibited”.
